The values below come from patent US20040097574A1, “Glucocorticoid mimetics, methods of making them, pharmaceutical compositions, and uses thereof” (Boehringer Ingelheim Pharmaceuticals, Inc., priority 2002, published 2004).

Assay [1] concerns the target T1, human glucocorticoid receptor (GR) complex (Homo sapiens, UniProt P04150).
T1 construct: made in house; host or cells: insect expression system (baculovirus lysate)
T1 sequence (P04150 1-777): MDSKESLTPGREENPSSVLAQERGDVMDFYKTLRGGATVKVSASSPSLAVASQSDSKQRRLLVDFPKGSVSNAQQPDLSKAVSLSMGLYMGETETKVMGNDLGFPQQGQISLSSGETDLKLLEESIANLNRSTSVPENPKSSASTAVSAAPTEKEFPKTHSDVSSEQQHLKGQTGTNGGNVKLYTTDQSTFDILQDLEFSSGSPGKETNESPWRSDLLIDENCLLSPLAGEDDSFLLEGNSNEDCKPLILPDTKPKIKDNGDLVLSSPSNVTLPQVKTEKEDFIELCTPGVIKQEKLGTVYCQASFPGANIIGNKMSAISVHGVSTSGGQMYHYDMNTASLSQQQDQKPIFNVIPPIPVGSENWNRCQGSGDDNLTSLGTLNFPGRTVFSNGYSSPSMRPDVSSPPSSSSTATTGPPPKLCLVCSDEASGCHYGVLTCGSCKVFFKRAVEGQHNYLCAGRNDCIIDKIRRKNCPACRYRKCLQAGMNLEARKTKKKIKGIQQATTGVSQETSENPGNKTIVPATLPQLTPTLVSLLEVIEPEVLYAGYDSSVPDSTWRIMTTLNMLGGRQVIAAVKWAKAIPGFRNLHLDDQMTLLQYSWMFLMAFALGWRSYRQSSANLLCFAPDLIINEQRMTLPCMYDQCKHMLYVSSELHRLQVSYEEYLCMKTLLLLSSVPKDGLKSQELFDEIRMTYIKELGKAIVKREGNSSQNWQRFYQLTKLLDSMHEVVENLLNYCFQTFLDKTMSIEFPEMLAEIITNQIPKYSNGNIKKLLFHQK
Put plainly: Glucocorticoid receptor competitive binding assay (fluorescence polarization). The settings on record: competition with TAMRA-labeled dexamethasone; read-out: potent activity in the GR binding assay (IC50). On the procedure:
Compounds of the invention were evaluated for binding to the steroid receptor by a fluorescence polarization competitive binding assay. Detailed descriptions for preparation of recombinant glucocorticoid receptor (GR) complex used in the assay is described in U.S. Patent Application Publication No. US 2003/0017503, filed May 20, 2002, and the corresponding U.S. provisional application No. 60/291,877, filed May 18, 2001, each of which is incorporated herein by reference in its entirety. Preparation of the tetramethyl rhodamine (TAMRA)-labeled dexamethasone probe was accomplished using a standard literature procedure (M. Pons et al., J. Steroid Biochem., 1985, 22, pp. 267-273).
A. Glucocorticoid Receptor Competitive Binding Assay
Step 1. Characterization of the Fluorescent Probe
The wavelengths for maximum excitation and emission of the fluorescent probe should first be measured. An example of such a probe is rhodamine (TAMRA)-labeled dexamethasone.
The affinity of the probe for the steroid receptor was then determined in a titration experiment. The fluorescence polarization value of the probe in assay buffer was measured on an SLM-8100 fluorometer using the excitation and emission maximum values described above. Aliquots of expression vector lysate were added and fluorescence polarization was measured after each addition until no further change in polarization value was observed. Non-linear least squares regression analysis was used to calculate the dissociation constant of the probe from the polarization values obtained for lysate binding to the probe.
Step 2. Screening for Inhibitors of Probe Binding
This assay uses fluorescence polarization (FP) to quantitate the ability of test compounds to compete with tetramethyl rhodamine (TAMRA)-labeled dexamethasone for binding to a human glucocorticoid receptor (GR) complex prepared from an insect expression system. The assay buffer was: 10 mM TES, 50 mM KCl, 20 mM Na2MoO4.2H2O, 1.5 mM EDTA, 0.04% w/v CHAPS, 10% v/v glycerol, 1 mM dithiothreitol, pH 7.4. Test compounds were dissolved to 1 mM in neat DMSO and then further diluted to 10x assay concentration in assay buffer supplemented with 10% v/v DMSO. Test compounds were serially diluted at 10x assay concentrations in 10% DMSO-containing buffer in 96-well polypropylene plates. Binding reaction mixtures were prepared in 96-well black Dynex microtiter plates by sequential addition of the following assay components to each well: 15 μL of 10x test compound solution, 85 μL of GR-containing baculovirus lysate diluted 1:170 in assay buffer, and 50 μL of 15 nM TAMRA-labeled dexamethasone. Positive controls were reaction mixtures containing no test compound; negative controls (blanks) were reaction mixtures containing 0.7 μM to 2 μM dexamethasone. The binding reactions were incubated for 1 hour at room temperature and then read for fluorescence polarization in the LJL Analyst set to 550 nm excitation and 580 nm emission, with the Rhodamine 561 dichroic mirror installed. IC50 values were determined by iterative non-linear curve fitting of the FP signal data to a 4-parameter logistic equation.
(In general: Fluorescence polarisation rises when a labelled molecule tumbles more slowly, as on binding a larger partner.)

Assay [2] concerns glucocorticoid receptor function. Put plainly: Glucocorticoid receptor function, one or more of the above assays (agonist/antagonist/modulator activity). Format: cell-based. To be noted: in one or more of the above assays. As for the experimental part: B. Glucocorticoid Receptor Cell Assays
1. Induction of Aromatase in Fibroblasts (Cell Assay for Transactivation)
Dexamethasone, a synthetic ligand to the glucocorticoid receptor (GR), induces expression of aromatase in human foreskin fibroblast cells. The activity of aromatase is measured by the conversion of testosterone to estradiol in culture media.
On the day of the experiment, the media in the wells is replaced with fresh media. Cells are treated with test compounds to final concentrations of 10^−5 M to 10^−8 M, and testosterone to a final concentration of 300 ng/mL. Each well has a total volume of 100 μL. Samples are made in duplicates. Control wells include: (a) wells that receive testosterone only, and (b) wells that receive testosterone plus 2 μM of dexamethasone to provide maximum induction of aromatase. Plates are incubated at 37° C. overnight (15 to 18 hours), and supernatants are harvested at the end of incubation. […] The amount of estradiol is inversely proportional to the ELISA signals in each well. The extent of aromatase induction by test compounds is expressed as a relative percentage to dexamethasone. EC50 values of test compounds are derived by non-linear curve fitting.
2. Inhibition of IL-6 Production in Fibroblasts (Cell Assay for Transrepression)
Human foreskin fibroblast cells produce IL-6 in response to stimulation by pro-inflammatory cytokine IL-1.
On the next day, media in the wells is replaced with fresh media. Cells are treated with IL-1 (rhIL-1α, R&D Systems Cat. No. 200-LA) to a final concentration of 1 ng/mL, and with test compounds to final concentrations of 10^−5 M to 10^−8 M, in a total volume of 200 μL per well. Samples are done in duplicates. […] Positive control wells receive IL-1 only and represent maximum (or 100%) amount of IL-6 production. Plates are incubated at 37° C. overnight (15 to 18 hours), and supernatants are harvested at the end of incubation. IL-6 levels in the supernatants are determined by the ELISA kits for IL-6 (MedSystems Diagnostics GmbH, Vienna, Austria, Cat. No. BMS213TEN) according to manufacture's instructions. The extent of inhibition of IL-6 by test compounds is expressed in percentage relative to positive controls. IC50 values of test compounds are derived by non-linear curve fitting.
Evaluation of agonist or antagonist activity of compounds binding to the glucocorticoid receptor may be determined by any of the assays.
3. Modulation of Tyrosine Aminotransferase (TAT) Induction in Rat Hepatoma Cells
Testing of compounds for agonist or antagonist activity in induction of tyrosine aminotransferase (TAT) in rat hepatoma cells.
H4-II-E-C3 cells were incubated overnight in 96 well plates (20,000 cells/100 μL/well) in MEM medium containing 10% heat inactivated FBS and 1% nonessential amino acids. On the next day, cells were stimulated with the indicated concentrations of dexamethasone or test compound (dissolved in DMSO, final DMSO concentration 0.2%) for 18 hours. Control cells were treated with 0.2% DMSO. After 18 hours, the cells were lysed in a buffer containing 0.1% Triton X-100 and the TAT activity was measured in a photometric assay using tyrosine and alpha-ketoglutarate as substrates.
For measuring antagonist activity, the hepatoma cells were pre-stimulated by addition of dexamethasone (concentration ranges from 3×10^−9 M to 3×10^−8 M) shortly before the test compound was applied to the cells.
4. Modulation of MMTV-Luc Induction in HeLa Cells
Testing of compounds for agonist or antagonist activity in stimulation of MMTV-(mouse mammary tumor virus) promoter in HeLa cells.
Cells were cultured overnight in DMEM medium without phenol red, supplemented with 3% CCS (charcoal treated calf serum) and then transferred to 96 well plates (15,000 cells/100 μL/well).

A value given as a limit tells only on which side of the number the result lay.

Take `CCC(Cc1c[nH]c2ccccc12)NS(=O)(=O)c1c(Cl)cc(Cl)cc1Cl` (centres unmarked) [2,4,6-Trichloro-N-[1-(1H-indol-3-ylmethyl)propyl]benzenesulfonamide]: the half-inhibitory concentration (IC50) (usually the point on the concentration scale where inhibition reaches its midpoint) in assay [1] was no more than 0.1 µM.

`CC(Cc1c[nH]c2ccccc12)NS(=O)(=O)c1c(Cl)cc(Cl)cc1Cl` (centres unmarked) [2,4,6-Trichloro-N-[2-(1H-indol-3-yl)-1-methylethyl]benzenesulfonamide]: in assay [2], the “activity as antagonists of the glucocorticoid receptor function” value is on record as “activity as antagonists”. Moreover, the IC50 in assay [1] is no more than 0.1 µM. Take `CC(Cc1c[nH]c2ccccc12)NS(=O)(=O)c1c(Cl)cccc1Cl` (centres unmarked) [2,6-Dichloro-N-[2-(1H-indol-3-yl)-1-methylethyl]benzenesulfonamide]: the “activity as antagonists of the glucocorticoid receptor function” value in assay [2] is given as “activity as antagonists”. For the molecule `Cc1cccc(Cl)c1S(=O)(=O)NC(C)Cc1c[nH]c2ccccc12` (centres unmarked) [2-Chloro-N-[2-(1H-indol-3-yl)-1-methylethyl]-6-methylbenzenesulfonamide], the “activity as antagonists of the glucocorticoid receptor function” value in assay [2] is given as “activity as antagonists”. For `CC(Cc1c[nH]c2ccccc12)NS(=O)(=O)c1c(Cl)sc(Cl)c1Br` (centres unmarked) [4-Bromo-2,5-dichlorothiophene-3-sulfonic acid [2-(1H-indol-3-yl)-1-methylethyl]amide], the “activity as antagonists of the glucocorticoid receptor function” value in assay [2] is listed as “activity as antagonists”. Moreover, in assay [1], the IC50 is no more than 0.1 µM. For the molecule `CCC(Cc1c[nH]c2ccccc12)NS(=O)(=O)c1c(C)cc(C)cc1C` (centres unmarked) [N-[1-(1H-Indol-3-ylmethyl)propyl]-2,4,6-trimethylbenzenesulfonamide], in assay [1], the IC50 was no more than 0.1 µM. On to `CC(Cc1c[nH]c2ccccc12)NS(=O)(=O)c1c(C(C)C)cc(C(C)C)cc1C(C)C` (centres unmarked) [N-[2-(1H-Indol-3-yl)-1-methylethyl]-2,4,6-triisopropylbenzenesulfonamide], for which the “activity as antagonists of the glucocorticoid receptor function” value in assay [2] was “activity as antagonists”. In assay [1], the concentration for half-maximal inhibition (IC50) was no more than 0.1 µM. Take `Cc1cc(C)c(S(=O)(=O)NC(C)Cc2c[nH]c3ccccc23)c(C)c1` (centres unmarked) [N-[2-(1H-Indol-3-yl)-1-methylethyl]-2,4,6-trimethylbenzenesulfonamide]: in assay [2], the “activity as an agonist of the glucocorticoid receptor function” value was “activity as an agonist”. Besides, the half-maximal inhibitory concentration (IC50) in assay [1] is no more than 0.1 µM. As to `Cc1cc(C)c(S(=O)(=O)NC(C)Cc2c[nH]c3ccc(F)cc23)c(C)c1` (centres unmarked) [N-[2-(5-Fluoro-1H-indol-3-yl)-1-methylethyl]-2,4,6-trimethylbenzenesulfonamide], the IC50 in assay [1] was no more than 0.1 µM. In the case of `Cc1cc(C)c(S(=O)(=O)NC(C)Cc2c[nH]c3cc(F)ccc23)c(C)c1` (centres unmarked) [N-[2-(6-Fluoro-1H-indol-3-yl)-1-methylethyl]-2,4,6-trimethylbenzenesulfonamide], the IC50 in assay [1] was no more than 0.1 µM.
